Measurements from patent EP4692091A1, “CA[…], AND PHARMACEUTICAL COMPOSITION, PREPARATION METHOD THEREFOR AND USE THEREOF” (Changchun Genescience Pharmaceutical Co., Ltd., priority 2023, dated 2024).

Experiments:
Assay type in all cases: cell-based
SK-BR-3 = assay: Inhibition of proliferation of SK-BR-3 cells by compounds (CellTiter-Glo, 72 h); details: SK-BR-3, 72 h incubation
Procedure: 3: Test method (1) Cell plating: first, tumor cells SK-BR-3 were cultured using a corresponding culture medium, trypsinized, centrifuged, resuspended for counting, adjusted to an appropriate concentration, and then plated on a 384-well plate. (2) Co-incubation of the compounds and tumor cells: after the cells adhered to the wall, 100 nL of a diluted bioactive substance (test compound) was added to the cell culture plate using ECHO, the final concentration of DMSO in wells of the cell plate was 0.33%, and the incubation was performed in an incubator at 37°C with 5% CO2 for 72 h. (3) After the incubation was complete, 30 µL of a CTG reagent (CelltiterGlo kit) was added to each well. The culture was oscillated on a fast oscillator for 2 min, centrifuged at 1,000 rpm for 1 min, and kept away from light at room temperature for 30 min. The chemiluminescence signal value was read using an Envision instrument. (4) Cell viability detection: IC50 was calculated using GraphPad Prism 8 software, and the IC50 of the compounds was obtained using the following nonlinear fitting formula (see Table 1) : 1. Y=Bottom+(Top-Bottom)/(1+10^((LogIC50-X)*HillSlope)) 2. […] Table 1 Antiproliferative activity of test compounds on SK-BR-3

NCI-N87 = assay: Inhibition of proliferation of NCI-N87 cells by test compounds (CellTiter-Glo, 72 h); details: NCI-N87, 72 h incubation
Procedure: 3: Test method (1) Cell plating: first, tumor cells NCI-N87 were cultured using a corresponding culture medium, trypsinized, centrifuged, resuspended for counting, adjusted to an appropriate concentration, and then plated on a 384-well plate. (2) Co-incubation of the compounds and tumor cells: after the cells adhered to the wall, 100 nL of a diluted bioactive substance (test compound) was added to the cell culture plate using ECHO, the final concentration of DMSO in wells of the cell plate was 0.33%, and the incubation was performed in an incubator at 37°C with […] for 72 h. (3) After the incubation was complete, 30 µL of a CTG reagent (CelltiterGlo kit) was added to each well. The culture was oscillated on a fast oscillator for 2 min, centrifuged at 1,000 rpm for 1 min, and kept away from light at room temperature for 30 min. The chemiluminescence signal value was read using an Envision instrument. (4) Cell viability detection: IC50 was calculated using GraphPad Prism 8 software, and the IC50 of the compounds was obtained using the following nonlinear fitting formula (see Table 3) : 11. Y=Bottom+(Top-Bottom)/(1+10^((LogIC50-X)*HillSlope)) 12. […] Table 3 Antiproliferative activity of test compounds on cells NCI-N87

MDA-MB-468 = assay: Inhibition of proliferation of MDA-MB-468 cells by test compounds (CellTiter-Glo, 72 h); details: MDA-MB-468, 72 h incubation
Procedure: 3: Test method • (1) Cell plating: first, tumor cells MDA-MB-468 were cultured using a corresponding culture medium, trypsinized, centrifuged, resuspended for counting, adjusted to an appropriate concentration, and then plated on a 384-well plate. • (2) Co-incubation of the compounds and tumor cells: after the cells adhered to the wall, 100 nL of a diluted bioactive substance (test compound) was added to the cell culture plate using ECHO, the final concentration of DMSO in wells of the cell plate was 0.33%, and the incubation was performed in an incubator at 37°C with […] for 72 h. • (3) After the incubation was complete, 30 µL of a CTG reagent (CelltiterGlo kit) was added to each well. The culture was oscillated on a fast oscillator for 2 min, centrifuged at 1,000 rpm for 1 min, and kept away from light at room temperature for 30 min. The chemiluminescence signal value was read using an Envision instrument. • (4) Cell viability detection: IC50 was calculated using GraphPad Prism 8 software, and the IC50 of the compounds was obtained using the following nonlinear fitting formula (see Table 2): • 6. Y=Bottom+(Top-Bottom)/(1+10^((LogIC50-X)*HillSlope)) • 7. […] Table 2 Antiproliferative activity of test compounds on MDA-MB-468

Compound: CC[C@@]1(O)C(=O)OCc2c1cc1n(c2=O)Cc2c-1nc1cc(F)c(C3CC3)c3c1c2C(NC(=O)C[C@@H](C)O)CC3 (single isomer, unassigned) [17-1]
- IC50 (SK-BR-3; Homo sapiens, SK-BR-3, 72 h): 4.6 nM
- IC50 (NCI-N87; Homo sapiens, NCI-N87, 72 h): 3.6 nM
- IC50 (MDA-MB-468; Homo sapiens, MDA-MB-468, 72 h): 5.8 nM

Compound: CC[C@@]1(O)C(=O)OCc2c1cc1n(c2=O)Cc2c-1nc1cc(F)c(C3CC3)c3c1c2C(NC(=O)[C@H]1C[C@@H](O)C1)CC3 (single isomer, unassigned) [18-2]
- IC50 (SK-BR-3; Homo sapiens, SK-BR-3, 72 h): 9.6 nM
- IC50 (NCI-N87; Homo sapiens, NCI-N87, 72 h): 16.5 nM
- IC50 (MDA-MB-468; Homo sapiens, MDA-MB-468, 72 h): 12 nM

Compound: CC[C@@]1(O)C(=O)OCc2c1cc1n(c2=O)Cc2c-1nc1cc(F)c(C3CC3)c3c1c2C(NC(=O)C[C@@H](C)O)CCC3 (single isomer, unassigned) [19-1]
- IC50 (SK-BR-3; Homo sapiens, SK-BR-3, 72 h): 8.3 nM
- IC50 (NCI-N87; Homo sapiens, NCI-N87, 72 h): 7.4 nM
- IC50 (MDA-MB-468; Homo sapiens, MDA-MB-468, 72 h): 7.1 nM

Compound: CC[C@@]1(O)C(=O)OCc2c1cc1n(c2=O)Cc2c-1nc1cc(F)c(C3CC3)c3c1c2C(NC(=O)C[C@@H](C)O)CCC3 (single isomer, unassigned) [19-2]
- IC50 (SK-BR-3): 7.6 nM
- IC50 (NCI-N87): 7.4 nM
- IC50 (MDA-MB-468): 6.9 nM

Compound: CC[C@@]1(O)C(=O)OCc2c1cc1n(c2=O)Cc2c-1nc1cc(F)c(C3CC3)c3c1c2C(NC(=O)[C@H]1C[C@@H](O)C1)CCC3 (single isomer, unassigned) [20-1]
- IC50 (SK-BR-3; Homo sapiens, SK-BR-3, 72 h): 21 nM
- IC50 (NCI-N87; Homo sapiens, NCI-N87, 72 h): 26 nM
- IC50 (MDA-MB-468; Homo sapiens, MDA-MB-468, 72 h): 15.6 nM

Compound: CC[C@@]1(O)C(=O)OCc2c1cc1n(c2=O)Cc2c-1nc1cc(F)c(C3CC3)c3c1c2C(NC(=O)[C@H]1C[C@@H](O)C1)CCC3 (single isomer, unassigned) [20-2]
- IC50 (SK-BR-3): 25 nM
- IC50 (NCI-N87): 28 nM
- IC50 (MDA-MB-468): 19.5 nM

Compound: CC[C@@]1(O)C(=O)OCc2c1cc1n(c2=O)Cc2c-1nc1cc(F)c(C)c3c1c2C(NC(=O)[C@H]1C[C@@H](O)C1)CCO3 (single isomer, unassigned) [25-1]
- IC50 (SK-BR-3): 80 nM
- IC50 (NCI-N87): 110 nM
- IC50 (MDA-MB-468): 69 nM

Compound: CC[C@@]1(O)C(=O)OCc2c1cc1n(c2=O)Cc2c-1nc1cc(F)c(C)c3c1c2C(NC(=O)[C@H]1C[C@@H](O)C1)CCO3 (single isomer, unassigned) [25-2]
- IC50 (SK-BR-3): 19 nM
- IC50 (NCI-N87): 40 nM
- IC50 (MDA-MB-468): 18 nM

Compound: CC[C@@]1(O)C(=O)OCc2c1cc1n(c2=O)Cc2c-1nc1cc(F)c(Br)c3c1c2C(NC(=O)C[C@@H](C)O)CC3 (stereo partly drawn) [3-1, (R)-N-((1S,9S)-4-bromo-9-ethyl-5-fluoro-9-hydroxy-10,13-dioxo-2,3,9,10,13,15-hexahydro-1H,12H-benzo[de]pyrano[3',4',6,7]indolizino[1,2-b]quinolin-1-yl)-3-hydroxybutanamide]
- IC50 (SK-BR-3): 13 nM
- IC50 (NCI-N87): 16 nM
- IC50 (MDA-MB-468): 7.5 nM

Compound: CC[C@@]1(O)C(=O)OCc2c1cc1n(c2=O)Cc2c-1nc1cc(F)c(Br)c3c1c2C(NC(=O)C[C@@H](C)O)CC3 (stereo partly drawn) [3-2, (R)-N-((1R,9S)-4-bromo-9-ethyl-5-fluoro-9-hydroxy-10,13-dioxo-2,3,9,10,13,15-hexahydro-1H,12H-benzo[de]pyrano[3',4',6,7]indolizino[1,2-b]quinolin-1-yl)-3-hydroxybutanamide]
- IC50 (SK-BR-3): 15 nM
- IC50 (NCI-N87): 16 nM
- IC50 (MDA-MB-468): 12 nM

Compound: CC[C@@]1(O)C(=O)OCc2c1cc1n(c2=O)Cc2c-1nc1cc(F)cc3c1c2C(NC(=O)C[C@@H](C)O)CC3 (stereo partly drawn) [4-1, (R)-N-((1S,9S)-9-ethyl-5-fluoro-9-hydroxy-10,13-dioxo-2,3,9,10,13,15-hexahydro-1H,12H-benzo[de]pyrano[3',4',6,7]indolizino[1,2-b]quinolin-1-yl)-3-hydroxybutanamide]
- IC50 (SK-BR-3): 61 nM
- IC50 (MDA-MB-468): 34 nM

Compound: CC[C@@]1(O)C(=O)OCc2c1cc1n(c2=O)Cc2c-1nc1cc(F)cc3c1c2C(NC(=O)C[C@@H](C)O)CC3 (stereo partly drawn) [4-2, (R)-N-((1R,9S)-9-ethyl-5-fluoro-9-hydroxy-10,13-dioxo-2,3,9,10,13,15-hexahydro-1H,12H-benzo[de]pyrano[3',4',6,7]indolizino[1,2-b]quinolin-1-yl)-3-hydroxybutanamide]
- IC50 (SK-BR-3): 14 nM
- IC50 (NCI-N87): 22 nM
- IC50 (MDA-MB-468): 13 nM

Compound: CC[C@@]1(O)C(=O)OCc2c1cc1n(c2=O)Cc2c-1nc1cc(F)c(OC(F)F)c3c1c2C(NC(=O)C[C@@H](C)O)CC3 (stereo partly drawn) [5-1, (R)-N-((1S,9S)-4-(difluoromethoxy)-9-ethyl-5-fluoro-9-hydroxy-10,13-dioxo-2,3,9,10,13,15-hexahydro-1H,12H-benzo[de]pyrano[3',4',6,7]indolizino[1,2-b]quinolin-1-yl)-3-hydroxybutanamide]
- IC50 (SK-BR-3): 20 nM
- IC50 (NCI-N87): 14 nM
- IC50 (MDA-MB-468): 6.7 nM

Compound: CC[C@@]1(O)C(=O)OCc2c1cc1n(c2=O)Cc2c-1nc1cc(F)c(OC(F)F)c3c1c2C(NC(=O)C[C@@H](C)O)CC3 (stereo partly drawn) [5-2, (R)-N-((1R,9S)-4-(difluoromethoxy)-9-ethyl-5-fluoro-9-hydroxy-10,13-dioxo-2,3,9,10,13,15-hexahydro-1H,12H-benzo[de]pyrano[3',4',6,7]indolizino[1,2-b]quinolin-1-yl)-3-hydroxybutanamide]
- IC50 (SK-BR-3): 20 nM
- IC50 (NCI-N87): 18 nM
- IC50 (MDA-MB-468): 9.4 nM

Compound: CC[C@@]1(O)C(=O)OCc2c1cc1n(c2=O)Cc2c-1nc1cc(F)c(C)c3c1c2C(NC(=O)C[C@@H](C)O)CCC3 (stereo partly drawn) [6-1, (R)-N-((1S,10S)-10-ethyl-6-fluoro-10-hydroxy-5-methyl-11,14-dioxo-1,2,3,4,10,11,14,16-octahydro-13H-cyclohepta[3',4',6,7]indolizino[1,2-b]quinolin-1-yl)-3-hydroxybutanamide]
- IC50 (SK-BR-3): 11 nM
- IC50 (NCI-N87): 7.5 nM
- IC50 (MDA-MB-468): 8.8 nM

Compound: C=Cc1c(F)cc2nc3c(c4c2c1CCC4NC(=O)C[C@@H](C)O)Cn1c-3cc2c(c1=O)COC(=O)[C@]2(O)CC (stereo partly drawn) [7-1, (R)-N-((1S,9S)-9-ethyl-5-fluoro-9-hydroxy-10,13-dioxo-4-vinyl-2,3,9,10,13,15-hexahydro-1H,12H-benzo[de]pyrano[3',4',6,7]indolizino[1,2-b]quinolin-1-yl)-3-hydroxybutanamide]
- IC50 (SK-BR-3): 8.6 nM
- IC50 (MDA-MB-468): 3.1 nM

Compound: CC[C@@]1(O)C(=O)OCc2c1cc1n(c2=O)Cc2c-1nc1cc(F)c(OCC(F)(F)F)c3c1c2C(NC(=O)C[C@@H](C)O)CC3 (stereo partly drawn) [8-2, (R)-N-((1R,9S)-9-ethyl-5-fluoro-9-hydroxy-10,13-dioxo-4-(2,2,2-trifluoroethoxy)-2,3,9,10,13,15-hexahydro-1H,12H-benzo[de]pyrano[3',4',6,7]indolizino[1,2-b]quinolin-1-yl)-3-hydroxybutanamide]
- IC50 (SK-BR-3): 87 nM
- IC50 (MDA-MB-468): 38 nM

Compound: CC[C@@]1(O)C(=O)OCc2c1cc1n(c2=O)Cc2c-1nc1cc(F)c(C3CC3)c3c1c2C(NC(=O)[C@H]1C[C@@H](O)C1)CC3 (stereo partly drawn) [18-1, (1S,3S)-N-((1R,9S)-4-cyclopropyl-9-ethyl-5-fluoro-9-hydroxy-10,13-dioxo-2,3,9,10,13,15-hexahydro-1H,12H-benzo[d]pyrano[3',4':6,7]indolizino[1,2-b]quinolin-1-yl)-3-hydroxycyclobutane-1-carboxamide]
- IC50 (MDA-MB-468): 12 nM

Compound: CC[C@@]1(O)C(=O)OCc2c1cc1n(c2=O)Cc2c-1nc1ccc(O)c3c1c2CCC3 [compound 9, (S)-9-ethyl-4,9-dihydroxy-1,2,3,9,12,15-hexahydro-10H,13H-benzopyrano[3',4',6,7]indolizino[1,2-b]quinoline-10,13-dione]
- IC50 (NCI-N87; Homo sapiens, NCI-N87, 72 h): 3 nM

Compound: (R)-3-cyclopropyl-N-((1S,9S)-4-cyclopropyl-9-ethyl-5-fluoro-9-hydroxy-10,13-dioxo-2,3,9,10,13,15-hexahydro-1H,12H-benzo[d]pyrano[3',4':6,7]indolizino[1,2-b]quinolin-1-yl)-3-hydroxypropanamide [34-2]
- IC50 (NCI-N87): 6 nM
- IC50 (MDA-MB-468): 4 nM
